# Calls of active or inactive are those of the source. No cut-off for these calls is given here.
# Experiments:
# [1] = system: Candida albicans; assay: Antifungal activity against Candida albicans SC5314 assessed as reduction in fungal growth incubated for 48 hrs by CLSI protocol based microplate reader analysis; format: functional
# [2] = system: Nakaseomyces glabratus; assay: Antifungal activity against Candida glabrata 10639 assessed as reduction in fungal growth incubated for 48 hrs by CLSI protocol based microplate reader analysis; format: functional
# [3] = system: Cryptococcus neoformans; assay: Antifungal activity against Cryptococcus neoformans H99 assessed as reduction in fungal growth incubated for 72 hrs by CLSI protocol based microplate reader analysis; format: functional
# [4] = system: Candida albicans; assay: Antifungal activity against Candida albicans 0304103 assessed as reduction in fungal growth incubated for 48 hrs by CLSI protocol based microplate reader analysis; format: functional
# [5] = Metabolic stability in Sprague-Dawley rat plasma assessed as parent compound remaining at 500 uM and measured upto 120 mins by HPLC analysis; format: ADME, cell-free; conditions: 2 h
# [6] = Metabolic stability in Sprague-Dawley rat liver microsomes assessed as parent compound remaining at 200 uM and measured upto 120 mins by HPLC analysis; format: ADME, Microsome; conditions: 2 h
# [7] = system: Cryptococcus neoformans; assay: In vivo antifungal activity against Cryptococcus neoformans H99 infected in cryptococcal meningitis ICR mouse model assessed as reduction in fungal burden in brain at 10 mg/kg,INH QD for 5 days by CFU assay; format: functional, organism-based; conditions: time 5.0 day
# [8] = system: Cryptococcus neoformans; assay: In vivo antifungal activity against Cryptococcus neoformans H99 infected in cryptococcal meningitis ICR mouse model assessed as reduction in fungal burden in lung at 10 mg/kg,INH QD for 5 days by CFU assay; format: functional, organism-based; conditions: time 5.0 day
# [9] = system: Cryptococcus neoformans; assay: In vivo antifungal activity against Cryptococcus neoformans H99 infected in cryptococcal meningitis ICR mouse model assessed as reduction in organism brain invasion at 10 mg/kg,INH QD for 5 days by PAS staining based microscopic analysis; format: functional; conditions: time 5.0 day
# [10] = system: Cryptococcus neoformans; assay: In vivo antifungal activity against Cryptococcus neoformans H99 infected in cryptococcal meningitis ICR mouse model assessed as reduction in blood vessel congestion at 10 mg/kg,INH QD for 5 days by H and E staining based microscopic analysis; format: functional, organism-based; conditions: time 5.0 day
# [11] = system: Cryptococcus neoformans; assay: In vivo antifungal activity against Cryptococcus neoformans H99 infected in cryptococcal meningitis ICR mouse model assessed as reduction in neuronal necrosis at 10 mg/kg,INH QD for 5 days by H and E staining based microscopic analysis; format: functional, organism-based; conditions: time 5.0 day
# [12] = system: Cryptococcus neoformans; assay: In vivo antifungal activity against Cryptococcus neoformans H99 infected in cryptococcal meningitis ICR mouse model assessed as reduction in irregular cavities in brain at 10 mg/kg,INH QD for 5 days by H and E staining based microscopic analysis; format: functional, organism-based; conditions: time 5.0 day
# [13] = system: Cryptococcus neoformans; assay: Antifungal activity against Cryptococcus neoformans H99 assessed as reduction in fungal growth at 0.25 to 8 ug/ml incubated upto 72 hrs by microplate reader analysis; format: functional, organism-based; conditions: dose 0.25-8 µg/ml
# [14] = system: Cryptococcus neoformans; assay: Fungicidal activity against Cryptococcus neoformans H99 assessed as reduction in colony forming units at 8 ug/ml incubated upto 72 hrs by time-kill assay; format: functional; parameters: scale not given: the % may be the effect or the level left; conditions: dose 8 µg/ml
# [15] = system: Cryptococcus neoformans; assay: Antifungal activity against Cryptococcus neoformans H99 assessed as reduction in number of colonies at 0.125 to 1 ug/ml incubated for 72 hrs by agar disk diffusion assay; format: functional; parameters: scale not given: the % may be the effect or the level left; conditions: dose 0.125-1 µg/ml, at 0.125 to 1 µg/mL
# [16] = system: Cryptococcus neoformans; assay: Inhibition of biofilm formation in Cryptococcus neoformans H99 at 0.25 ug/ml incubated for 24 hrs by XTT reduction assay; format: functional
# [17] = system: Cryptococcus neoformans; assay: Inhibition of biofilm formation in Cryptococcus neoformans H99 at 0.25 ug/ml incubated for 24 hrs in presence of 2-phenyl-4,4,5,5-tetramethylimidazoline-l-oxyl 3-oxide by XTT reduction assay; format: functional, organism-based; conditions: dose 0.25 µg/ml
# [18] = system: Cryptococcus neoformans; assay: Disruption of preformed mature biofilm in Cryptococcus neoformans H99 assessed as removal of mature biofilm at 0.125 ug/ml incubated for 24 hrs by XTT reduction assay; format: functional; parameters: scale not given: the % may be the effect or the level left; conditions: dose 0.125 µg/ml
# [19] = system: Cryptococcus neoformans; assay: Disruption of preformed mature biofilm in Cryptococcus neoformans H99 assessed as removal of mature biofilm at 32 ug/ml incubated for 24 hrs by XTT reduction assay; format: functional; parameters: scale not given: the % may be the effect or the level left; conditions: dose 32 µg/ml
# [20] = system: Cryptococcus neoformans; assay: Disruption of preformed mature biofilm in Cryptococcus neoformans H99 assessed as removal of mature biofilm at 0.125 to 32 ug/ml incubated for 24 hrs in presence of 2-phenyl-4,4,5,5-tetramethylimidazoline-l-oxyl 3-oxide by XTT reduction assay; format: functional, organism-based; conditions: dose 0.125-32 µg/ml
# [21] = Drug metabolism in Cryptococcus neoformans H99 assessed as NO release by measuring green fluorescence at 8 ug/ml incubated for 12 hrs by DAF-FM DA staining based confocal laser scanning microscopy; format: ADME; conditions: dose 8 µg/ml
# [22] = system: Cryptococcus neoformans; assay: Fungicidal activity against Cryptococcus neoformans H99 assessed as cell death by measuring red fluorescence at 8 ug/ml incubated for 12 hrs by PI staining based confocal laser scanning microscopy; format: functional, organism-based; conditions: dose 8.0 µg/ml
# [23] = system: Cryptococcus neoformans; assay: Inhibition of CYP51 in Cryptococcus neoformans H99 assessed as reduction in ergosterol level at 0.125 ug/ml incubated for 24 hrs by GC-MS analysis (Rvb= 58.33%); conditions: dose 0.125 µg/ml
# [24] = system: Cryptococcus neoformans; assay: Inhibition of CYP51 in Cryptococcus neoformans H99 assessed as increase in lanosterol level at 0.125 ug/ml incubated for 24 hrs by GC-MS analysis (Rvb= 6.24%); conditions: dose 0.125 µg/ml
# [25] = system: Cryptococcus neoformans; assay: Inhibition of CYP51 in Cryptococcus neoformans H99 assessed as decrease in unknown sterol level at 0.125 ug/ml incubated for 24 hrs by GC-MS analysis (Rvb= 22.95%); conditions: dose 0.125 µg/ml
# [26] = system: Cryptococcus neoformans; assay: Inhibition of CYP51 in Cryptococcus neoformans H99 assessed as increase in other unknown sterol level at 0.125 ug/ml incubated for 24 hrs by GC-MS analysis (Rvb= 12.49%); conditions: dose 0.125 µg/ml
# [27] = system: Cryptococcus neoformans; assay: Antifungal activity against Cryptococcus neoformans H99 assessed as change in internal microstructure by observing cell membrane damage at 0.125 to 4 ug/ml incubated for 8 hrs by TEM analysis; format: functional, organism-based; conditions: dose 0.125-4 µg/ml
# [28] = system: Cryptococcus neoformans; assay: Antifungal activity against Cryptococcus neoformans H99 assessed as change in internal microstructure by observing sparse capsule at 0.125 to 4 ug/ml incubated for 8 hrs by TEM analysis; format: functional, organism-based; conditions: dose 0.125-4 µg/ml
# [29] = system: Cryptococcus neoformans; assay: Antifungal activity against Cryptococcus neoformans H99 assessed as reduction in melanin production at 16 ug/ml by microplate analysis; format: functional, organism-based; conditions: dose 16.0 µg/ml
# [30] = system: Cryptococcus neoformans; assay: Antifungal activity against Cryptococcus neoformans H99 assessed as reduction in urease production at 4 ug/ml by microplate analysis; format: functional, organism-based; conditions: dose 4.0 µg/ml
# [31] = system: Cryptococcus neoformans; assay: In vivo antifungal activity against Cryptococcus neoformans H99 infected in cryptococcal meningitis ICR mouse model assessed as reduction in fungal burden in brain at 1 mg/kg,INH QD for 5 days by CFU assay; format: functional, organism-based; conditions: time 5.0 day
# [32] = system: Cryptococcus neoformans; assay: In vivo antifungal activity against Cryptococcus neoformans H99 infected in cryptococcal meningitis ICR mouse model assessed as reduction in fungal burden in lung at 1 mg/kg,INH QD for 5 days by CFU assay; format: functional, organism-based; conditions: time 5.0 day
# [33] = system: Cryptococcus neoformans; assay: In vivo antifungal activity against Cryptococcus neoformans H99 infected in cryptococcal meningitis ICR mouse model assessed as reduction in organism brain invasion at 1 mg/kg,INH QD for 5 days by PAS staining based microscopic analysis; format: functional; conditions: time 5.0 day
# [34] = system: Cryptococcus neoformans; assay: In vivo antifungal activity against Cryptococcus neoformans H99 infected in cryptococcal meningitis ICR mouse model assessed as reduction in blood vessel congestion at 1 mg/kg,INH QD for 5 days by H and E staining based microscopic analysis; format: functional, organism-based; conditions: time 5.0 day
# [35] = system: Cryptococcus neoformans; assay: In vivo antifungal activity against Cryptococcus neoformans H99 infected in cryptococcal meningitis ICR mouse model assessed as reduction in neuronal necrosis at 1 mg/kg,INH QD for 5 days by H and E staining based microscopic analysis; format: functional, organism-based; conditions: time 5.0 day
# [36] = system: Cryptococcus neoformans; assay: In vivo antifungal activity against Cryptococcus neoformans H99 infected in cryptococcal meningitis ICR mouse model assessed as reduction in irregular cavities in brain at 1 mg/kg,INH QD for 5 days by H and E staining based microscopic analysis; format: functional, organism-based; conditions: time 5.0 day
smiles,measurement,setting,value
CN(Cc1ccc(OCCCOc2ccc(CC(=O)NCCO[N+](=O)[O-])cc2)cc1)CC(O)(Cn1cncn1)c1ccc(F)cc1F (configuration not stated),MIC80,[1],1 mg/L
same,MIC80,[2],1 mg/L
same,MIC80,[3],0.125 mg/L
same,MIC80,[4],> 64 mg/L
same,Stability,[5],Stable
same,Stability,[6],Stable
same,Activity,[7],Active
same,Activity,[8],inactive
same,Activity,[9],Active
same,Activity,[10],Active
same,Activity,[11],Active
same,Activity,[12],Active
CN(Cc1ccc(OCCCOc2ccc(CC(=O)OCCO[N+](=O)[O-])cc2)cc1)CC(O)(Cn1cncn1)c1ccc(F)cc1F (configuration not stated),MIC80,[1],1 mg/L
same,MIC80,[2],1 mg/L
same,MIC80,[3],0.125 mg/L
same,MIC80,[4],> 64 mg/L
same,Activity,[13],Dose-Dependent Effect
same,Activity,[14],100%
same,Activity,[15],100%
same,inhibition at 0.25 µg/mL,[16],> 50%
same,inhibition,[17],inactive
same,Activity,[18],25%
same,Activity,[19],50%
same,Activity,[20],inactive
same,Drug metabolism,[21],Metabolite_Detected
same,Activity,[22],Active
same,inhibition,[23],23.7%
same,inhibition,[24],44.5%
same,inhibition,[25],5.31%
same,inhibition,[26],26.5%
same,Activity,[27],Active
same,Activity,[28],Dose-Dependent Effect
same,Activity,[29],Active
same,Activity,[30],Active
same,Stability,[5],Unstable
same,Stability,[6],Unstable
same,Activity,[31],Active
same,Activity,[32],Active
same,Activity,[33],Active
same,Activity,[34],Active
same,Activity,[35],Active
same,Activity,[36],Active

# From ChEMBL document CHEMBL5370616, “Novel Nitric Oxide Donor-Azole Conjugation Strategy for Efficient Treatment of Cryptococcus neoformans Infections” (J Med Chem, 2023)
